Key:
[1] = Terminal half life in human plasma; assay type: ADME, organism-based; conditions: read-out: beta t1/2 (converted)
Homo sapiens [2] = assay: Effect on sleep parameter in insomnia patient assessed as total sleep time at 20 mg, po measured on night 1 by polysomnography; assay type: functional
Homo sapiens [3] = assay: Effect on sleep parameter in insomnia patient assessed as latency to persistent sleep time at 10 mg, po measured on night 1 by polysomnography; assay type: functional
Homo sapiens [4] = assay: Effect on sleep parameter in insomnia patient assessed as total sleep time at 80 mg, po measured on night 1 by polysomnography; assay type: functional
Homo sapiens [5] = assay: Effect on sleep parameter in insomnia patient assessed as sleep efficiency at 20 mg, po measured on night 1 by polysomnography; assay type: functional
Homo sapiens [6] = assay: Effect on sleep parameter in insomnia patient assessed as sleep efficiency at 80 mg, po measured on night 28 by polysomnography; assay type: functional
Canis familiaris = assay: Effect on sleep parameter in po dosed dog by EEG analysis; assay type: functional, Canis lupus familiaris
Rattus norvegicus [7] = organism: Rattus norvegicus; assay: Receptor occupancy at OX2R in rat brain assessed as drug level in plasma; assay type: functional
Homo sapiens [8] = assay: Effect on sleep parameter in insomnia patient assessed as sleep efficiency at 10 mg, po measured on night 28 by polysomnography; assay type: functional
Homo sapiens [9] = assay: Effect on sleep parameter in insomnia patient assessed as sleep efficiency at 20 mg, po measured on night 28 by polysomnography; assay type: functional
Homo sapiens [10] = assay: Effect on sleep parameter in insomnia patient assessed as wake after sleep onset time at 80 mg, po measured on night 1 by polysomnography; assay type: functional
Homo sapiens [11] = assay: Effect on sleep parameter in insomnia patient assessed as latency to persistent sleep time at 80 mg, po measured on night 28 by polysomnography; assay type: functional
Homo sapiens [12] = assay: Effect on sleep parameter in insomnia patient assessed as latency to persistent sleep time at 20 mg, po measured on night 1 by polysomnography; assay type: functional
Homo sapiens [13] = assay: Effect on sleep parameter in insomnia patient assessed as sleep efficiency at 10 mg, po measured on night 1 by polysomnography; assay type: functional
Homo sapiens [14] = assay: Effect on sleep parameter in insomnia patient assessed as latency to persistent sleep time at 40 mg, po measured on night 28 by polysomnography; assay type: functional
Homo sapiens [15] = assay: Effect on sleep parameter in insomnia patient assessed as wake after sleep onset time at 10 mg, po measured on night 1 by polysomnography; assay type: functional
Homo sapiens [16] = assay: Effect on sleep parameter in insomnia patient assessed as total sleep time at 10 mg, po measured on night 28 by polysomnography; assay type: functional
[17] = Apparent permeability of the compound; assay type: physicochemical; conditions: not told
Homo sapiens [18] = assay: Effect on sleep parameter in insomnia patient assessed as wake after sleep onset time at 40 mg, po measured on night 28 by polysomnography; assay type: functional
Homo sapiens [19] = assay: Effect on sleep parameter in insomnia patient assessed as sleep efficiency at 40 mg, po measured on night 1 by polysomnography; assay type: functional
Homo sapiens [20] = assay: Effect on sleep parameter in insomnia patient assessed as wake after sleep onset time at 80 mg, po measured on night 28 by polysomnography; assay type: functional
Homo sapiens [21] = assay: Effect on sleep parameter in insomnia patient assessed as wake after sleep onset time at 20 mg, po measured on night 28 by polysomnography; assay type: functional
[22] = Plasma protein binding in dog; assay type: ADME, cell-free, Canis lupus familiaris; conditions: read-out: PPB (converted)
Rattus norvegicus [23] = assay: Effect on sleep parameter in po dosed rat by EEG analysis; assay type: functional
Homo sapiens [24] = assay: Effect on sleep parameter in insomnia patient assessed as sleep efficiency at 40 mg, po measured on night 28 by polysomnography; assay type: functional
Homo sapiens [25] = assay: Effect on sleep parameter in insomnia patient assessed as sleep efficiency at 80 mg, po measured on night 1 by polysomnography; assay type: functional
Homo sapiens [26] = assay: Effect on sleep parameter in insomnia patient assessed as total sleep time at 40 mg, po measured on night 1 by polysomnography; assay type: functional
Homo sapiens [27] = assay: Effect on sleep parameter in insomnia patient assessed as wake after sleep onset time at 10 mg, po measured on night 28 by polysomnography; assay type: functional
[28] = Tmax in human plasma; assay type: ADME, organism-based
Homo sapiens [29] = assay: Effect on sleep parameter in insomnia patient assessed as latency to persistent sleep time at 80 mg, po measured on night 1 by polysomnography; assay type: functional
Homo sapiens [30] = assay: Effect on sleep parameter in insomnia patient assessed as latency to persistent sleep time at 10 mg, po measured on night 28 by polysomnography; assay type: functional
Homo sapiens [31] = assay: Effect on sleep parameter in insomnia patient assessed as total sleep time at 10 mg, po measured on night 1 by polysomnography; assay type: functional
Homo sapiens [32] = assay: Effect on sleep parameter in insomnia patient assessed as total sleep time at 40 mg, po measured on night 28 by polysomnography; assay type: functional
[33] = Clearance in iv dosed rat; assay type: ADME, organism-based; conditions: in vivo
Homo sapiens [34] = assay: Effect on sleep parameter in insomnia patient assessed as total sleep time at 80 mg, po measured on night 28 by polysomnography; assay type: functional
Homo sapiens [35] = assay: Effect on sleep parameter in insomnia patient assessed as wake after sleep onset time at 40 mg, po measured on night 1 by polysomnography; assay type: functional
Homo sapiens [36] = assay: Effect on sleep parameter in insomnia patient assessed as latency to persistent sleep time at 20 mg, po measured on night 28 by polysomnography; assay type: functional
Homo sapiens [37] = assay: Effect on sleep parameter in insomnia patient assessed as latency to persistent sleep time at 40 mg, po measured on night 1 by polysomnography; assay type: functional
Homo sapiens [38] = assay: Effect on sleep parameter in insomnia patient assessed as wake after sleep onset time at 20 mg, po measured on night 1 by polysomnography; assay type: functional
Homo sapiens [39] = assay: Effect on sleep parameter in insomnia patient assessed as total sleep time at 20 mg, po measured on night 28 by polysomnography; assay type: functional

What does the source list for Cc1ccc(-n2nccn2)c(C(=O)N2CCN(c3nc4cc(Cl)ccc4o3)CC[C@H]2C)c1 [SUVOREXANT]?
half-life [1]: 8 h; Time (Homo sapiens [2]): 36.2 min; Time (Homo sapiens [3]): -3.4 min; Time (Homo sapiens [4]): 61.9 min; Activity (Homo sapiens [5]): 7.6%; Activity (Homo sapiens [6]): 7.6%; Activity (Canis familiaris): 3 mg/kg; Occ90 (Rattus norvegicus [7]): 1070 nM; Activity (Homo sapiens [8]): 4.7%; Activity (Homo sapiens [9]): 10.4%; Time (Homo sapiens [10]): -36.8 min; Time (Homo sapiens [11]): -9.5 min; Time (Homo sapiens [12]): -9.4 min; Activity (Homo sapiens [13]): 5.2%; Time (Homo sapiens [14]): -3.8 min; Time (Homo sapiens [15]): -21.2 min; Time (Homo sapiens [16]): 22.3 min; Papp [17]: 37 ×10⁻⁶ cm/s; Time (Homo sapiens [18]): -33.2 min; Activity (Homo sapiens [19]): 10.8%; Time (Homo sapiens [20]): -28.9 min; Time (Homo sapiens [21]): -28.1 min; fraction unbound [22]: 0.01; Activity (Rattus norvegicus [23]): 10 mg/kg; Activity (Homo sapiens [24]): 7.8%; Activity (Homo sapiens [25]): 12.9%; Time (Homo sapiens [26]): 52.4 min; Time (Homo sapiens [27]): -21.4 min; Tmax [28]: 1.5 h; Time (Homo sapiens [29]): -25.4 min; Time (Homo sapiens [30]): -2.3 min; Time (Homo sapiens [31]): 25.1 min; Time (Homo sapiens [32]): 36.8 min; clearance [33]: 44 mL/min/kg; Time (Homo sapiens [34]): 36.6 min; Time (Homo sapiens [35]): -33.9 min; Time (Homo sapiens [36]): -22.3 min; Time (Homo sapiens [37]): -23.1 min; Time (Homo sapiens [38]): -24.7 min; Time (Homo sapiens [39]): 49.9 min

From ChEMBL document CHEMBL3769367, “Orexin Receptor Antagonists: New Therapeutic Agents for the Treatment of Insomnia” (J Med Chem, 2016)
